Assay results taken from article PMC10791743, “Selective CK1α degraders exert antiproliferative activity against a broad range of human cancer cell lines” (Nature Communications, 2024).
Several values for one entry are separate records, joined by “and”; a condition that tells them apart may be missing. Identical values can stand only once. Entries after “also recorded” stand apart in the source; their conditions may differ.

How the values were obtained:
[1] = system: panel of AML and ALL cell lines; experiment: CTG viability in a panel of AML and ALL cell lines (Fig. 3a); type: cell-based, human; conditions: for IC50: replicate values
Procedure: The primary screen was performed in 384-well format using the CellTiter Glo (CTG) luminescent cell viability assay (Promega) as previously described. […] After overnight incubation at 37 °C in a humidified 5% CO2 incubator, cells were treated with compounds in dose–response format using a Pintool on a Biomek FX^P Laboratory Automation Workstation (Beckman Coulter). […] Luminescence signal was measured using an EnVision plate reader (PerkinElmer).
HD-MB03 cell line was obtained from Drs. Milde, Witt and Deubzer[52]. HD-MB03 and MB004 cells were grown in a neurobasal medium supplemented with glutamine, streptomycin, penicillin, B27, EGF, bFGF, and heparin as previously described. MB002 and MB004 cells were obtained from Dr Yoon-Jae Cho[54]. MB002 cells were cultured in 80% neurobasal medium supplemented with glutamine, streptomycin, penicillin, B27, and 20% conditioned media from previous passages; EGF, bFGF, and heparin were also added to the medium. MHH-CALL4, NALM-16, MHH-CALL-2 cells were obtained from the German Collection of Microorganisms and Cell Cultures GmbH (DSMZ, Germany). PER-117 cells were obtained from Telethon Kids Institute (Perth, Australia). The cells were cultured in RPMI1640 medium supplemented with 10% FBS (Hyclone), Penicillin/Streptomycin (100 units/mL), and Glutamine (100 µM) except for MHH-CALL-2 cells where 20% FBS were used. […] OCI-AML3 cells were purchased from DSMZ (ACC 690) and cultured in Alpha-MEM media (Invitrogen) supplemented with 20% FBS and 100 U/ml penicillin–streptomycin. […] Cell identity was confirmed by STR profiling using PowerPlex® Fusion System (Promega).

[2] = Liver microsomes stability assay, mouse; type: in vitro ADME
Procedure: page 31: using a REMS Autosampler (World Precision Instruments, Sarasota, […]1 cells were grown for 5 days to reach a consistent confluency level monitored by epithelial voltohmmeter to confirm the intactness of the confluent polarized monolayer. For transport experiments, each cultured monolayer on the 96-well plate was washed twice with a transport buffer (HBSS/25 mM […] The cell-based permeability assay was initiated by the addition of each compound solution (10 μmol/L) into inserts (apical side, A) or receivers (basolateral side, B). After incubated […] (if basal to apical permeability), and concentrations were assessed by UPLC/MS (Waters; Milford, MA). All compounds were tested in triplicates. The A→B (or B→A) apparent permeability coefficients (Papp) of each compound were calculated using the equation (3): […], where dQ/dt equals the flux of a drug across the monolayer, the parameters of A equals the surface area of total insert well, and C0 is the initial concentration of substrate in the donor compartment. The efflux ratio was determined by dividing the Papp in the B-A direction by the Papp in the A-B direction. […] NADPH regenerating agent solutions A and B (Corning GentestTM, Cat. No: 451220) were purchased from Discovery Labware (Woburn, MA). Mouse liver microsomes (CD-1, pooled, GibcoTM, Cat. No: MSMCPL) were obtained from Thermo Fisher Scientific (Fredrick, MD). Pooled human liver microsomes (mixed gender, Cat. No: E0630) were purchased from XenoTech (Lenexa, KS). Stock solutions of test compounds were prepared at 10 mM in DMSO. Sample preparation for microsomal stability was modified from Di's publications3,4. […] and 4 hours) by Labcyte Echo 650 acoustic dispenser (Beckman Coulter Life Sciences, Indianapolis, IN). All compounds were tested in triplicate per time point. […] Plasma stability assay5: The degradation of human or mouse plasma was assessed by monitoring the gradual reduction of the parent compound over specified time intervals (0, 3, 24, and 48 hours). […]

p21 = p21 immunoblotting in MOLM-13 cells; type: cell-based, human; conditions: for p21 quantified protein expression (western blot): 3 western blots
[3] = Homo sapiens, MOLM-13, MOLM-13 cells
[4] = time course 0-8 hrs, relative to no treatment

## Cc1cccc(C(=O)Nc2ccc3c(c2)CN(C2CCC(=O)NC2=O)C3=O)c1 (centres unmarked) [SJ0040]
[1]; HNT-34 cells
  IC50: 2 nM (2×) and 4.9 nM
[1]; Homo sapiens, MHHCALL-2 cells
  IC50: 27 nM
[1]; [3]
  IC50: 125 nM
[1]; KASUMI-3 cells
  IC50: 16 nM and 11 nM and 30.2 nM
[1]; MHHCALL-4 cells
  IC50: 67 nM and 73 nM and 17 nM
[1]; MOLM-13 cells
  IC50: 136 nM and 96.2 nM
[1]; NALM16 cells
  IC50: 130 nM and 16 nM and 25 nM

## O=C1CCC(N2Cc3cc(Nc4noc5ccccc45)ccc3C2=O)C(=O)N1 (centres unmarked) [SJ3149]
[2]; CD-1, mouse, liver microsomes, pH 7.4, read-out: Microsome stability t1/2
  half-life at 10 µM: > 10 h
p21; MOLM-13, 1 μM, 0-8 h
  p21 induction, time course: not present until 4 h; also recorded: does not occur until after 4 hours
p21; time 1 hr, relative to no treatment
  p21 quantified protein expression (western blot): 0.8518 and 1.28 and 0.8338
p21; time 2 hrs, relative to no treatment
  p21 quantified protein expression (western blot): 1.31 and 1.5551 and 1.213
p21; time 4 hrs, relative to no treatment
  p21 quantified protein expression (western blot): 4.341 and 2.673 and 4.158
p21; time 8 hrs, relative to no treatment
  p21 quantified protein expression (western blot): 4.765 and 2.907 and 5.628
p21; time course 0-8 hrs, X axis is time
  IC50 (line fit, sigmoidal 4PL) of p21 expression versus time: 3.071
p21; [4]
  Bottom (line fit, sigmoidal 4PL) of p21 expression versus time: 0.988
  Top (line fit, sigmoidal 4PL) of p21 expression versus time: 4.463
[1]; CTG
  IC50 values / cytotoxicity in panel of AML and ALL cell lines: single digit nanomolar range; also recorded: low nanomolar to sub-nanomolar range
[1]; HNT-34 cells
  IC50: 1.5 nM
[1]; Homo sapiens, HNT-34, HNT-34 cells
  IC50: 1 nM
[1]; Homo sapiens, Kasumi-3, KASUMI-3 cells
  IC50: 118 nM
[1]; Homo sapiens, MHHCALL4, MHHCALL-4 cells
  IC50: 3 nM
[1]; Homo sapiens, MHHCALL-2 cells
  IC50: 2 nM
[1]; [3]
  IC50: 8 nM
[1]; KASUMI-3 cells
  IC50: 72 nM and 71.7 nM
[1]; MHHCALL-4 cells
  IC50: 4 nM
[1]; MOLM-13 cells
  IC50: 11 nM and 7.1 nM

## O=C1CCC(N2Cc3c(CNC(=O)c4ccc(F)cc4)cccc3C2=O)C(=O)N1 (centres unmarked) [SJ7095]
p21; MOLM-13, increasing concentrations, 4 h
  p21 protein levels: dose-dependent upregulation of p21

## O=C1CCC(N2Cc3cc(Nc4noc5ccccc45)ccc3C2=O)C(=O)N1 (centres unmarked) [SJ001043149-1]
[2]
  Ke: -0.01
  t(1/2): -69.12
